# Source: ChEMBL document CHEMBL1136221, “Analysis of the critical structural determinant(s) of species-selective peroxisome proliferator-activated receptor alpha (PPAR alpha)-activation by phenylpropanoic acid-type PPAR alpha agonists” (Bioorg Med Chem Lett, 2003)
# Positions count from the first letter of the chain named.
# Columns and labels:
# Type in all cases: cell-based
# [1] = target: Peroxisome proliferator-activated receptor alpha (Homo sapiens, UniProt Q07869, I272F); test: Transcriptional activation activity on human I272F-mutant Peroxisome proliferator activated receptor alpha expressed in CHO-K1 cells
# [2] = target: Peroxisome proliferator-activated receptor alpha (Homo sapiens, UniProt Q07869, T279M); test: Transcriptional activation activity on human T279M-mutant Peroxisome proliferator activated receptor alpha expressed in CHO-K1 cells
# [3] = target: T1, Peroxisome proliferator-activated receptor alpha (Homo sapiens, UniProt Q07869); test: Transcriptional activation activity on human Peroxisome proliferator activated receptor alpha expressed in CHO-K1 cells
# T1 sequence (Q07869 whole entry): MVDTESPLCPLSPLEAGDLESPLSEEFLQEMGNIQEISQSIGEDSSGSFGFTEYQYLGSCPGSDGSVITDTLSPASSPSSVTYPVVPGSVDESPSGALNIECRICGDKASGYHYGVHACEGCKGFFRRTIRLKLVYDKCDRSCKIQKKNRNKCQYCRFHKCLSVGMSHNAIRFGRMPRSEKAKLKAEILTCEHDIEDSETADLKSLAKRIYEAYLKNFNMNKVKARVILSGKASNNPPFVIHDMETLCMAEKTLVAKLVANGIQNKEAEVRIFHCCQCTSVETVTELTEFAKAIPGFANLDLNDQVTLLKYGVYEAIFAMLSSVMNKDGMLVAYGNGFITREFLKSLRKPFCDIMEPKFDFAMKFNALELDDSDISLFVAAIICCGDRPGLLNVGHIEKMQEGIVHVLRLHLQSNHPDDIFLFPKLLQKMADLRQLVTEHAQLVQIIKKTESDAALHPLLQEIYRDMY
# [4] = tested on: Peroxisome proliferator-activated receptor alpha (Homo sapiens), Q07869 [UNDEFINED MUTATION]; test: Ratio of transcriptional activation of T279M mutant compared to wild type PPAR-GAL4 chimeric receptors in CHO-K1 cells
# [5] = tested on: T2, Peroxisome proliferator-activated receptor alpha (Homo sapiens), Q07869 [I272F]; test: Transcriptional activation activity on human I272F-mutant Peroxisome proliferator activated receptor alpha expressed in CHO-K1 cells at 10 uM
# T2 sequence (whole entry): T1 sequence (Q07869 whole entry) with I272F
# [6] = tested on: Peroxisome proliferator-activated receptor alpha (Homo sapiens), Q07869 [UNDEFINED MUTATION]; test: Ratio of transcriptional activation of I272F mutant compared to wild type PPAR-GAL4 chimeric receptors in CHO-K1 cells
# Peroxisome proliferator-activated receptor alpha (Homo sapiens, UniProt Q07869, T279M), sequence (Q07869 whole entry T279M): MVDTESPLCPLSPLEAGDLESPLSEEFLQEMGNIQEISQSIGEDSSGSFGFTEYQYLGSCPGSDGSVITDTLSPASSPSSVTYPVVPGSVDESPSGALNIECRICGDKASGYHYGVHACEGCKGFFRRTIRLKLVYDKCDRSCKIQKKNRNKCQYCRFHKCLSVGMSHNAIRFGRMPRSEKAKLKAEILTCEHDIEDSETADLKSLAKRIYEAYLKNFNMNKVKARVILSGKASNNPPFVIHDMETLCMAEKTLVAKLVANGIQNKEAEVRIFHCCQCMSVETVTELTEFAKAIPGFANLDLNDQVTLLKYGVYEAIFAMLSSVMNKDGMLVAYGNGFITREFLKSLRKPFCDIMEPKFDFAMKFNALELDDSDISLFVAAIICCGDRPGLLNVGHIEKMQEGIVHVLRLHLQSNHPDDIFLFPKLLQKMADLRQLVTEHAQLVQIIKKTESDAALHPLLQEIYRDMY
# Peroxisome proliferator-activated receptor alpha (Homo sapiens, UniProt Q07869, I272F), sequence (Q07869 whole entry I272F): as the sequence (Q07869 whole entry T279M) above, with I272F, M279T counted along it
smiles,measurement,setting,value
CC[C@@H](Cc1ccc(OC)c(C(=O)NCc2ccc(C(F)(F)F)cc2)c1)C(=O)O,EC50,[1],2820 nM
same,EC50,[2],0.309 µM
same,EC50,[3],80.3 nM
CC[C@@H](Cc1ccc(OC)c(C(=O)NCc2ccccc2)c1)C(=O)O,Ratio,[4],3.37
same,inhibition,[5],30%
same,EC50,[2],11.4 µM
same,EC50,[3],3380 nM
CC[C@@H](Cc1ccc(OC)c(C(=O)NCc2ccc(Oc3ccc(F)cc3)cc2)c1)C(=O)O,Ratio,[6],108
same,Ratio,[4],2.28
same,EC50,[1],667 nM
same,EC50,[2],0.014 µM
same,EC50,[3],0.615 nM
CC[C@@H](Cc1ccc(OC)c(OCCc2ccc(C(F)(F)F)cc2)c1)C(=O)O,Ratio,[6],12.3
same,Ratio,[4],5.92
same,EC50,[1],33400 nM
same,EC50,[2],16.1 µM
same,EC50,[3],2720 nM
